Data as given in publication PMC10327353 (Breast Cancer Research : BCR, 2023).

What was measured:
[1] = target: T1, TrkA(h) (Homo sapiens, UniProt P04629); assay: Kinase panel assay (Eurofins); assay type: biochemical
T1 construct: purchased Eurofins UK Ltd (Dundee, UK)
Method: (§1) In vitro profiling of the 121-recombinant kinase panel was performed at Eurofins UK Ltd (Dundee, UK). In brief, recombinant kinases were incubated within an appropriate buffer containing peptide substrate and radiolabelled γ-^33P-ATP together with the presence or absence of the required compound concentration. The reaction was initiated by adding ATP/Mg^2+ mix. After incubation for 40 minutes at room temperature, the reaction was stopped by adding 3% phosphoric acid solution. A portion of the reaction mix was spotted onto P30 filtermat to trap peptide and washed three times for 5 minutes with phosphoric acid to remove non-specific γ-^33P-ATP. The substrate phosphorylation was then measured by scintillation counting, which determined the level of kinase activity inhibition compared to control reactions. Percentage inhibition data for each kinase was mapped to the kinome tree (www.kinhub.org).

[2] = target: T2, c-RAF(h) (Homo sapiens, UniProt P04049); assay: Kinase panel assay (Eurofins); assay type: biochemical
T2 construct: purchased Eurofins UK Ltd (Dundee, UK)
T2 sequence (P04049 whole entry): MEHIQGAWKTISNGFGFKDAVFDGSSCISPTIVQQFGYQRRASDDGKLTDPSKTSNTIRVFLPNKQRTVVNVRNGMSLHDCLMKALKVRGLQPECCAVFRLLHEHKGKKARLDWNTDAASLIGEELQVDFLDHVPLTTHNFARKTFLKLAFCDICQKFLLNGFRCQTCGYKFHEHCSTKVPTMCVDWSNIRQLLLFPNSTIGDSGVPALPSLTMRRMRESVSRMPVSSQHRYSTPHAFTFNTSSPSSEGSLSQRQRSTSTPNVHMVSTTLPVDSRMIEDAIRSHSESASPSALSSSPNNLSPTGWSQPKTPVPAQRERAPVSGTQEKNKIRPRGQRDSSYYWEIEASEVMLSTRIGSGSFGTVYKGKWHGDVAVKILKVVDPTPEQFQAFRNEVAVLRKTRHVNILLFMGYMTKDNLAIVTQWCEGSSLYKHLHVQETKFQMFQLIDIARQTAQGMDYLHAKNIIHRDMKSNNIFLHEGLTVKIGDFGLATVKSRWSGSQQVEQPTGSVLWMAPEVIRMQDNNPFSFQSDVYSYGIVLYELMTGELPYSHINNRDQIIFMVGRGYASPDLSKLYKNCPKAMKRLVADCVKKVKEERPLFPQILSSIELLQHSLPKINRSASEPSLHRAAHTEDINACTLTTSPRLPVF
Method: as §1

[3] = target: T3, EGFR(h) (Homo sapiens, UniProt P00533); assay: Kinase panel assay (Eurofins); assay type: biochemical
T3 construct: purchased Eurofins UK Ltd (Dundee, UK)
T3 sequence (P00533 25-1210): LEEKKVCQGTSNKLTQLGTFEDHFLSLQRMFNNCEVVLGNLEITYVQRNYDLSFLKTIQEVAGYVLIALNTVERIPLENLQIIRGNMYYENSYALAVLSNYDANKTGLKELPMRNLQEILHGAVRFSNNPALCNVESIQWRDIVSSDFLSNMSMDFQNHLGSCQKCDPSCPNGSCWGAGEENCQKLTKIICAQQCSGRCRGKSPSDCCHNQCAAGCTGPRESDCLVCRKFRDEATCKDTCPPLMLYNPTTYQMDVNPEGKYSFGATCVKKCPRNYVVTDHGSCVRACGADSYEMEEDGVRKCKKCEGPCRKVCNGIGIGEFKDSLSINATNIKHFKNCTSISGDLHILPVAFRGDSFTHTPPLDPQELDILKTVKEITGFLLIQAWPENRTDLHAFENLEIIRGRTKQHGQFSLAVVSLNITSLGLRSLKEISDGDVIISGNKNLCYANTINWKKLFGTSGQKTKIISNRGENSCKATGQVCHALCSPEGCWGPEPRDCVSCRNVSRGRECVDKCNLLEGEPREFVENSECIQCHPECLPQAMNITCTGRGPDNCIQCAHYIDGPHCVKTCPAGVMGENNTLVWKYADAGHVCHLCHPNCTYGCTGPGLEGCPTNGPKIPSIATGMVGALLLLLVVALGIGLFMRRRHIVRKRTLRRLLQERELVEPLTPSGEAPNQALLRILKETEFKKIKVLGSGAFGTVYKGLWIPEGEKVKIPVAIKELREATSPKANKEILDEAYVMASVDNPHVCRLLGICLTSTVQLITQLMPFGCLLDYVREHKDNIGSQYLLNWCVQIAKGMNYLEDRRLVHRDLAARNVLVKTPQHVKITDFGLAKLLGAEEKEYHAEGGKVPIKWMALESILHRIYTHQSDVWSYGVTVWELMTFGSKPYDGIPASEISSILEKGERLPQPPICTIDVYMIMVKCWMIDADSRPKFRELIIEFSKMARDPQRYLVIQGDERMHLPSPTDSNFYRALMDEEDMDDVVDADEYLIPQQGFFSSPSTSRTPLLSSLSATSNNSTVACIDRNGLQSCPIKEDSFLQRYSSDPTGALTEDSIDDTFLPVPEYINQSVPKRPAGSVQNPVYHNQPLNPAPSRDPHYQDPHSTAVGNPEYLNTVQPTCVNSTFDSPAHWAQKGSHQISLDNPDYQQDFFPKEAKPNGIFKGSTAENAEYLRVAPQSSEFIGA
Method: as §1

[4] = target: T4, Lck(h) activated (Homo sapiens, UniProt P06239); assay: Kinase panel assay (Eurofins); assay type: biochemical
T4 construct: purchased Eurofins UK Ltd (Dundee, UK)
T4 sequence (P06239 whole entry): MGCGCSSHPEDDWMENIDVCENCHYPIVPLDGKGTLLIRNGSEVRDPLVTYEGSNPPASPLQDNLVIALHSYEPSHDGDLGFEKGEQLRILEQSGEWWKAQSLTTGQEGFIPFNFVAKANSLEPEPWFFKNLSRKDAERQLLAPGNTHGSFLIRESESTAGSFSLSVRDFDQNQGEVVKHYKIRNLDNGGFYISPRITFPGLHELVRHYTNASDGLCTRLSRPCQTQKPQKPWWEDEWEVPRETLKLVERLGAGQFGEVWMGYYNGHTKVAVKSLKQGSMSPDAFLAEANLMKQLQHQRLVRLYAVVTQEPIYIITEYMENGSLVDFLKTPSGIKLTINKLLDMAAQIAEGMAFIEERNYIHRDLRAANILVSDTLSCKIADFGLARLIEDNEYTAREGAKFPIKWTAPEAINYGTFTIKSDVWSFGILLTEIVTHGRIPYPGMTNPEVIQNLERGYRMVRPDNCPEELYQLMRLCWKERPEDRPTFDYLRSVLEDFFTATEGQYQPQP
Method: as §1

[5] = target: T5, Lyn(h) (Homo sapiens, UniProt P07948); assay: Kinase panel assay (Eurofins); assay type: biochemical
T5 construct: purchased Eurofins UK Ltd (Dundee, UK)
T5 sequence (P07948 whole entry): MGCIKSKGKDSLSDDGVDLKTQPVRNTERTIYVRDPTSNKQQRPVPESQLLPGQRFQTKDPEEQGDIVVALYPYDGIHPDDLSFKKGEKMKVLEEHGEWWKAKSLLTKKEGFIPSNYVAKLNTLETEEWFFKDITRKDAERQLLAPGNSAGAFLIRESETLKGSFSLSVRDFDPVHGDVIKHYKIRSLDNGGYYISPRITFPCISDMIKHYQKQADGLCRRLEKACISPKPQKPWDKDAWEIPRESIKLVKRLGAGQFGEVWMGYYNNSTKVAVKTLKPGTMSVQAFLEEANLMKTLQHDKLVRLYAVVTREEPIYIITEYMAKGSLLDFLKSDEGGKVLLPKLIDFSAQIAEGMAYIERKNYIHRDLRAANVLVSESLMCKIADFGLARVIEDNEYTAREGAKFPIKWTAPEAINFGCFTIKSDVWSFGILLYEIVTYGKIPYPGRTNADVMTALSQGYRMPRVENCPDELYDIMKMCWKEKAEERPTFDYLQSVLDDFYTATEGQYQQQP
Method: as §1

[6] = target: T6, EGFR(T790M,L858R)(h) (Homo sapiens, UniProt P00533, L858R/T790M); assay: Kinase panel assay (Eurofins); assay type: biochemical
T6 construct: purchased Eurofins UK Ltd (Dundee, UK)
Method: as §1

[7] = target: T7, HER2(h) (Homo sapiens, UniProt P04626); assay: Kinase panel assay (Eurofins); assay type: biochemical
T7 construct: purchased Eurofins UK Ltd (Dundee, UK)
Method: as §1

[8] = target: T8, Met(h) (Homo sapiens, UniProt P08581); assay: Kinase panel assay (Eurofins); assay type: biochemical
T8 construct: purchased Eurofins UK Ltd (Dundee, UK)
Method: as §1

[9] = target: T9, Lck(h) (Homo sapiens, UniProt P06239); assay: Kinase panel assay (Eurofins); assay type: biochemical
T9 construct: purchased Eurofins UK Ltd (Dundee, UK)
T9 sequence (P06239 whole entry): as the sequence (P06239 whole entry) above
Method: as §1

[10] = target: T10, Blk(h) (Homo sapiens, UniProt P51451); assay: Kinase panel assay (Eurofins); assay type: biochemical
T10 construct: purchased Eurofins UK Ltd (Dundee, UK)
Method: as §1

[11] = target: T11, ErbB4(h) (Homo sapiens, UniProt Q15303); assay: Kinase panel assay (Eurofins); assay type: biochemical
T11 construct: purchased Eurofins UK Ltd (Dundee, UK)
Method: as §1

[12] = target: T12, Fms(h) (Homo sapiens, UniProt P07333); assay: Kinase panel assay (Eurofins); assay type: biochemical
T12 construct: purchased Eurofins UK Ltd (Dundee, UK)
T12 sequence (P07333 20-972): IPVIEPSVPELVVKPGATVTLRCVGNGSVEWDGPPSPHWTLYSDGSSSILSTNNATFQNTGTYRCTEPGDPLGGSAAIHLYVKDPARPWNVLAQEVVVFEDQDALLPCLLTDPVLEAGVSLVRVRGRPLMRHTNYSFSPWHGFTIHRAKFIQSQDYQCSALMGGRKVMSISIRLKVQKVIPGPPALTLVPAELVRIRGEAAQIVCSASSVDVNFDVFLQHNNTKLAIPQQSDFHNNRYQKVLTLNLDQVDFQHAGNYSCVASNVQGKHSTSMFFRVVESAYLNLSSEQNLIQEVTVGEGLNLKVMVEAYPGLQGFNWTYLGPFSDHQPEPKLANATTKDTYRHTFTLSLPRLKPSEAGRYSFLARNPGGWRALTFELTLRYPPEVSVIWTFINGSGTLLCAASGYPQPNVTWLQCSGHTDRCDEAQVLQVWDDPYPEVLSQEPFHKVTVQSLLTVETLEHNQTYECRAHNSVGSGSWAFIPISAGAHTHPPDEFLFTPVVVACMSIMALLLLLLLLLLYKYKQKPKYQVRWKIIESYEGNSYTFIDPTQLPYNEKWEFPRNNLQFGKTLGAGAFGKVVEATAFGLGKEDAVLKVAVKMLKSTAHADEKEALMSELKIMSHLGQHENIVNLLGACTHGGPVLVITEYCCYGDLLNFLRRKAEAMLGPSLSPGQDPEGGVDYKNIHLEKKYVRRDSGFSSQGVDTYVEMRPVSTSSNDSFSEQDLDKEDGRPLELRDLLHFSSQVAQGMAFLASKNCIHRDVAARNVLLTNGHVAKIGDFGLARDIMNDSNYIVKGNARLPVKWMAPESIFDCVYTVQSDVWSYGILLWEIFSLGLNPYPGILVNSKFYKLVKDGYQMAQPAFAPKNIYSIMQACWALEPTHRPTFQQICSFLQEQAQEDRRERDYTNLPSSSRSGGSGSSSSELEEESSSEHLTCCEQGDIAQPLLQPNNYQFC
Method: as §1

[13] = Human hepatocyte intrinsic clearance; assay type: in vitro ADME; settings: human hepatocytes; read-out: Human Heps Clint
[14] = target: T13, pHER2 (Homo sapiens, UniProt P04626); assay: pHER2 IHC (PD) in SC xenograft tumor tissue after single dose; assay type: in vivo, mice
T13 construct: from tissue; host or cells: subcutaneous BT474C1-Luci Mono1 xenograft tumour tissue from nude mice
T13 sequence (P04626 23-1255): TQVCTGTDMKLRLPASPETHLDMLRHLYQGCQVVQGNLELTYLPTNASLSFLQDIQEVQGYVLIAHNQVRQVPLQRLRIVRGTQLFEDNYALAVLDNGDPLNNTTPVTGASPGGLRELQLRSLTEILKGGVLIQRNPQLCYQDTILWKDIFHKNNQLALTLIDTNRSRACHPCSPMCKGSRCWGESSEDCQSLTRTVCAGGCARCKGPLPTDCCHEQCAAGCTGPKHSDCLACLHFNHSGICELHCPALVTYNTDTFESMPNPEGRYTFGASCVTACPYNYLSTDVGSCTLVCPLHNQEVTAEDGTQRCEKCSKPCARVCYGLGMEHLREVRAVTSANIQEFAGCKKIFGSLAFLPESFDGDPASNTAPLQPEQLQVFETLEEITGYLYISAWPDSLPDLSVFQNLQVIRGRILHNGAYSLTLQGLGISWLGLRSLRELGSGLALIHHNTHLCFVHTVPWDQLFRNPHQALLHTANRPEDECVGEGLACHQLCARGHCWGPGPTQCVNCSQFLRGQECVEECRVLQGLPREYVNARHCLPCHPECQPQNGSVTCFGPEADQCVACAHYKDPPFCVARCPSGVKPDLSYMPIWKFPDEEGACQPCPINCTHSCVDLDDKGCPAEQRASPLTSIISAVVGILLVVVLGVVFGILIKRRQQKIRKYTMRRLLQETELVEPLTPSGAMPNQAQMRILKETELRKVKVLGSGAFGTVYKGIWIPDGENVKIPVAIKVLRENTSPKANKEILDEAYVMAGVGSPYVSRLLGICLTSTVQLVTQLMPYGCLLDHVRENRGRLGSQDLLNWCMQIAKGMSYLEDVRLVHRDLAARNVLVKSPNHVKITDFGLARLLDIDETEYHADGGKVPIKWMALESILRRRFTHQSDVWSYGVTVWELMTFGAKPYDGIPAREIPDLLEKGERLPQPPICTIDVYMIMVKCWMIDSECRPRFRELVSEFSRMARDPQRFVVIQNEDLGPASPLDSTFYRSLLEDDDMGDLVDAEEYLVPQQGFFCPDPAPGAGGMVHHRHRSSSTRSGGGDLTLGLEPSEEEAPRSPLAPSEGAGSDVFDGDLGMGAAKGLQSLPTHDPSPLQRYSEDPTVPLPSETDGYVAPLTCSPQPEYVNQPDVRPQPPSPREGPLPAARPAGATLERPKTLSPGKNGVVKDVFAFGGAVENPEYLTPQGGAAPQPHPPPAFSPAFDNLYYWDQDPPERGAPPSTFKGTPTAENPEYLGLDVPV
Method: The subcutaneous xenograft tissues were collected from mice after a single dose of vehicle or DZD1516. Samples were snap-frozen for analysis. Tissues from animals were analyzed at each time point IHC was performed on 5 μm frozen sections using a Ventana discovery XT automation (Roche) for pHER2 (Catalog #) IHC staining. The stained IHC slides were firstly reviewed and interpreted by a qualified pathologist and then quantified by the Imagescope software of Aperio system. The “H” score quantified by Aperio system will be corrected by a pathologist. Statistical analysis was performed by t-test.

[15] = tested on: BT474C1-Luci Mono1 LM xenograft; assay: LM (leptomeningeal metastasis) BT474C1-Luci Mono1 xenograft model; assay type: in vivo, nude mice
Method: The LM model was generated by implanting 10 µl of cell suspension containing 1 × 10^4 BT474C1-Luci Mono1 cells through cisterna magna into each mouse under anaesthesia following similar procedures as described in the literature (31). 17β- ESTRADIOL (90-day release 0.36 mg/pellet) were injected subcutaneously 24 hrs before cell inoculation. Under anaesthesia, mice were placed in the prone position with their neck draped over a cylinder. The head was immobilized with the thumb and mid-finger, with the index finger palpating the space between the occiput and C1. BT474c1-Luci Mono1 cell suspension at 10 µl containing 0.01 million cells were injected intracisternally. When the bioluminescent signal reached > 5 × 10^6 photon/s, animals were randomized for treatment. […]
In both BM and LM models, the day of randomization was defined as Day 0 and the treatment was started one day after randomization. The bioluminescence signals and body weight of the mice were measured once weekly. Relative bioluminescence intensity on a specific day was calculated by dividing the bioluminescence intensity on that day by the bioluminescence intensity on Day 0. The tumour growth inhibition (TGI) was calculated by formula: TGI (%) = (1-(relative bioluminescence intensity of treated group)/(relative bioluminescence intensity of control group)) x 100.Establishment of SC model

Which results are given for `COc1cc(O[C@H]2CCN(C)CC2(F)F)c2c(Nc3ccc(Oc4ccn5ncnc5c4)c(C)c3)ncnc2c1` [DZD1516]?
IC50 [1]: 1290 nM; IC50 [2]: 1040 nM; IC50 [3]: 92 nM; IC50 [4]: 180 nM; IC50 [5]: 2300 nM; IC50 [6]: 244 nM; IC50 [7]: 16 nM; IC50 [8]: 1090 nM; IC50 [9]: 433 nM; IC50 [10]: 2670 nM; IC50 [11]: 52 nM; IC50 [12]: 1070 nM; hepatocyte CLint [13]: 12 µL/min/1e6 cells; inhibition at 50 mg/kg ([14]; mouse, single dose 50 mg/kg, 0.25 h): > 94%; inhibition at 150 mg/kg ([14]; mouse, single dose 150 mg/kg): 89%; duration of pHER2 inhibition ([14]; single dose 50 mg/kg): 6 h; duration of pHER2 inhibition ([14]; single dose 150 mg/kg): 24 h; TGI ([15]; 100 mg/kg twice daily): 57%; TGI ([15]; 150 mg/kg twice daily): 81%
